The source of these data is PubChem BioAssay (NCI).

Holding throughout (experiment): NCI tumour cell line growth inhibition, 48 h
The test system of assay [1] is MDA-MB-231 breast.
Assay [2] deals with COLO 205 colon.
Assay [3] deals with T-47D breast.
Assay [4] deals with PC-3 prostate.
Assay [5] has as its system RPMI-8226 leukemia.
Assay [6] concerns SF-268 CNS.
The subject of assay [7] is KM12 colon.
For assay [8], the system named is MDA-MB-435.
For assay [9], the system named is SR leukemia.
For assay [10], the system named is NCI/ADR-RES ovarian.
Assay [11] relates to HCT-116 colon.
The subject of assay [12] is HS 578T breast.
The test system of assay [13] is HOP-92 NSCLC.
The test system of assay [14] is MDA-N.
The test system of assay [15] is CCRF-CEM leukemia.
Assay [16] relates to OVCAR-8 ovarian.
The test system of assay [17] is SNB-75 CNS.

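Five compound concentrations were applied to cells in 96-well plates for 48 hours; endpoints were derived by simple linear interpolation of the resulting dose-response curve. GI50 = concentration required for 50% inhibition of growth. The concentration for full growth arrest is given as TGI.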

Turning to `C=C1CC[C@@]2(C)[C@@H]([C@@H]1C)[C@H]1CC[C@@H]3[C@@]4(C)CC[C@H](O)C(C)(C)[C@@H]4CC[C@@]3(C)[C@]1(C)C[C@@H]2O`, the TGI is 4.75 µM in assay [1]; greater than 100 µM in assay [2]; 8.76 µM in [3]; 10.3 µM in assay [4]; greater than 100 µM in [5]; 9.76 µM in [6]. The TGI is 15.8 µM in assay [7]; 26 µM in assay [8]; greater than 100 µM in [9]; 14.2 µM in assay [10]; greater than 23.9 µM in [11]; 7.29 µM in assay [12]. Also, the TGI in assay [13] was 4.82 µM; in assay [14] it was greater than 51.5 µM; in assay [15] it was greater than 100 µM.

Regarding `O=C([CH-]C(=O)c1ccccc1)c1ccccc1.[C-]#[O+].[C-]#[O+].[Ir]`, the values for the GI50 in assay [7], in assay [16] and in [17] were 66.1 µM, 45.4 µM and 45.6 µM, respectively. Further, the TGI in assay [7], in [16] and in assay [17] was greater than 100 µM throughout.
